In patent US9763884B2, “Drug delivery system” (EB IP HYBRITABS B.V., priority 2011, dated 2017):

Columns and labels:
[1] = Clinical cross-over pharmacokinetic study of F1 versus F2 (testosterone and sildenafil citrate) in healthy pre-menopausal women; details: female, human, plasma, other: sublingual, 0.5 mg
Method: Sildenafil (S) and N-desmethyl-sildenafil (NDS) concentrations were determined by HPLC-MS/MS as follows.
The human plasma samples were vortex mixed and 0.5 mL of the sample was transferred into a clean test tube to which 20 μL of an Internal Standard solution (10 ng/mL) in methanol was added and vortex mixed. Then, 4 mL Methyl-Tertiary-Butyl-Ether (MTBE) was added, tubes were capped and shaken for 10 minutes and then centrifuged for 5 minutes at 2000 rcf. The tubes were placed into a snap freezer and the bottom water layer was frozen. The supernatant was transferred into a clean tube and evaporated to dryness under a stream of nitrogen. […]
Cmax and Tmax were read from the observed values. The half life was calculated from the unweighted linear regression of the log transformed data determined at the elimination phase of the pharmacokinetic profile. The Area Under Curve (O-last) was determined as the area under the concentration versus time curve from the first time point to last time point with measurable drug concentration with a linear/log-linear trapezoidal model. The AUC (0-∞) was determined by extrapolation from the time point where the last measurable drug concentration (Cp) occurred to time infinity. […] Tlag was determined as the first time point with a measurable concentration.
The calculated concentrations were used for PK calculations.

[2] = general statement in the discussion, no source given; cited from earlier work
[3] = Pharmacokinetics of three single doses of sublingual testosterone solution in healthy premenopausal women; details: for AUC(0-t) / Cmax / MRT / Tmax / half-life / bioavailability: female, human, in vivo; for AUC(0-t) / Cmax / MRT / Tmax / half-life: serum; for AUC(0-t) / Cmax: geometric mean (% CV); for MRT / Tmax / half-life: mean ± SD
Method: All 16 subjects received each investigational drug dose once in random order. Wash-out between treatments was at least 48 h. Subjects had serial blood samples drawn via an intravenous catheter. Pharmacokinetic parameters were monitored at baseline and (at 2, 4, 6, 8, 10, 20, 30, 60, 90, 120, 180, 230 min) after dosing.
Blood samples in the placebo condition were only measured at −5, 10, 60 and 230 min.
For the placebo solution 0.50 ml was administered.
The different doses were prepared by an unblinded research associate and administered by blinded research associates. The blinded research associate administered the solution into the subjects mouth under the tongue, the subjects were instructed to keep the solution sublingually for 1 minute while moving the tongue slightly to optimize absorption. After 1 minute the blinded research associate instructed the subject to swallow the solution.
E2 was analysed by a chemiluminescence immunoassay (Siemens), the LLOQ was […]. 3α-diol-G was measured by ELISA (BioVendor), the LLOQ was 0.25 ng/mL. SHBG was measured by an electrochemiluminescent assay (ECLIA, Roche). Albumin was measured by Roche Bromocresol Green (BCG) analysis (Roche).
The pharmacokinetic parameters were analyzed using the WinNonlin software (version 5.1). Pharmacokinetic parameters including area under the curve, t=0 till t=230 min (AUC0-230), maximum concentration (Cmax) and time to maximum concentration (tmax) were calculated based on actual and baseline corrected individual concentration time curves. AUCs were estimated using the linear trapezoidal rule. Individual pharmacokinetic parameters AUC0-230 and Cmax and corresponding dose normalized parameters were log transformed and analyzed using a mixed maximum likelihood analysis (PROC MIXED in SAS, version 9.1) including subject as a random factor and drug as a fixed effect factor. Contrasts were made of the least square means to compare the different doses. Tmax was analyzed using a Wilcoxon rank sum test. This was based on the planned times corresponding to the actual tmax to prevent bias in analysis results based on differences in sampling times.
Subsequently, we divided the subjects into two subgroups, on the basis of their baseline SHBG levels (mean of placebo, 0.25, 0.50, 0.75 mg predose levels). This subdivision was based on a median split of the baseline SHBG levels. One group (N=8) with low SHBG levels (≦63 nmol/L) and the other group (N=8) with relatively high SHBG levels (>63 nmol/L).

[4] = 0.25 mg, free testosterone, 0.25 mg sublingual
[5] = 0.25 mg, total testosterone, 0.25 mg sublingual
[6] = 0.5 mg, free testosterone, 0.50 mg sublingual
[7] = 0.5 mg, total testosterone, 0.50 mg sublingual
[8] = 0.75 mg, free testosterone, 0.75 mg sublingual
[9] = 0.75 mg, total testosterone, 0.75 mg sublingual
[10] = subjects with high SHBG, 0.25 mg
[11] = subjects with high SHBG, 0.50 mg
[12] = subjects with high SHBG, 0.75 mg
[13] = subjects with low SHBG, 0.25 mg, at 20 min after dosing
[14] = subjects with low SHBG, 0.50 mg, at 20 min after dosing
[15] = subjects with low SHBG, 0.75 mg, at 20 min after dosing

C[C@]12CC[C@H]3[C@@H](CCC4=CC(=O)CC[C@@]43C)[C@@H]1CC[C@@H]2O [Testosterone, testosterone]
Tmax [1]: 10 to 20 min
half-life [1]: ~37 min
T1/2 of free testosterone (rapidly metabolized) [2]: 10 min
time at which serum free and total testosterone levels peaked ([3]; all three doses (0.25, 0.50, 0.75 mg) sublingual): 15 min
AUC(0-t) ([3]; 0.25 mg, Baseline corrected AUC 0-230, free testosterone, 0.25 mg sublingual): 0.0158 ng·h/mL
AUC(0-t) ([3]; 0.25 mg, Baseline corrected AUC 0-230, total testosterone, 0.25 mg sublingual): 3.23 ng·h/mL
Cmax [3, 4]: 0.021 ng/mL
Cmax [3, 5]: 3.79 ng/mL
MRT [3, 4]: 52.6 min
MRT [3, 5]: 57.7 min
Tmax [3, 4]: 15.6 min
Tmax [3, 5]: 15.6 min
half-life ([3]; 0.25 mg, t1/2, free testosterone, 0.25 mg sublingual): 42.3 ± 14.6 min
half-life ([3]; 0.25 mg, t1/2, total testosterone, 0.25 mg sublingual): 49.8 ± 16 min
bioavailability ([3]; 0.5 mg): 69%
AUC(0-t) ([3]; 0.5 mg, Baseline corrected AUC 0-230, free testosterone, 0.50 mg sublingual): 0.0252 ng·h/mL
AUC(0-t) ([3]; 0.5 mg, Baseline corrected AUC 0-230, total testosterone, 0.50 mg sublingual): 4.43 ng·h/mL
Cmax [3, 6]: 0.032 ng/mL
Cmax [3, 7]: 5.31 ng/mL
MRT [3, 6]: 57.1 min
MRT [3, 7]: 55.6 min
Tmax [3, 6]: 14.4 min
Tmax [3, 7]: 15.1 min
half-life ([3]; 0.5 mg, t1/2, free testosterone, 0.50 mg sublingual): 55.7 ± 27.5 min
half-life ([3]; 0.5 mg, t1/2, total testosterone, 0.50 mg sublingual): 49.7 ± 22.4 min
bioavailability ([3]; 0.75 mg): 58%
AUC(0-t) ([3]; 0.75 mg, Baseline corrected AUC 0-230, free testosterone, 0.75 mg sublingual): 0.0312 ng·h/mL
AUC(0-t) ([3]; 0.75 mg, Baseline corrected AUC 0-230, total testosterone, 0.75 mg sublingual): 5.62 ng·h/mL
Cmax [3, 8]: 0.043 ng/mL
Cmax [3, 9]: 6.73 ng/mL
MRT [3, 8]: 51.4 min
MRT [3, 9]: 59.5 min
Tmax [3, 8]: 12.8 min
Tmax [3, 9]: 14.3 min
half-life ([3]; 0.75 mg, t1/2, free testosterone, 0.75 mg sublingual): 51.1 ± 26.4 min
half-life ([3]; 0.75 mg, t1/2, total testosterone, 0.75 mg sublingual): 58.5 ± 24.6 min
influence on 3α-diol-G concentrations ([3]; increasing doses, t=0, 60, 120, 230): does not seem to influence
maximum levels of free testosterone [3, 10]: 0.018 ng/mL
maximum levels of total testosterone [3, 10]: 5.00 ng/mL
maximum levels of free testosterone [3, 11]: 0.026 ng/mL
maximum levels of total testosterone [3, 11]: 7.08 ng/mL
maximum levels of free testosterone [3, 12]: 0.034 ng/mL
maximum levels of total testosterone [3, 12]: 9.04 ng/mL
maximum levels of free testosterone [3, 13]: 0.026 ng/mL
maximum levels of total testosterone [3, 13]: 3.18 ng/mL
maximum levels of free testosterone [3, 14]: 0.039 ng/mL
maximum levels of total testosterone [3, 14]: 3.93 ng/mL
maximum levels of free testosterone [3, 15]: 0.048 ng/mL
maximum levels of total testosterone [3, 15]: 4.73 ng/mL
tolerability ([3]; three doses sublingual testosterone): well tolerated
